Key:
[1] = test system: Human immunodeficiency virus 1; experiment: In vitro antiviral activity against fully replicating wild type HIV1 NL4-3 in presence of human serum; format: functional, organism-based; conditions: Human immunodeficiency virus 1, NL4-3
[2] = test system: Human immunodeficiency virus 1; experiment: In vitro antiviral activity against fully replicating HIV1 NL4-3 harboring Gag T332S/V362I/prR41G mutant; format: functional, organism-based; conditions: Human immunodeficiency virus 1, NL4-3
[3] = test system: Human immunodeficiency virus 1; experiment: In vitro antiviral activity against fully replicating HIV1 harboring Gag deltaV370 mutant by multicycle assay; format: functional, organism-based
[4] = test system: Human immunodeficiency virus 1; experiment: Ratio of EC50 for antiviral activity against fully replicating HIV1 harboring Gag V370A mutant by multicycle assay to EC50 for antiviral activity against fully replicating wild type HIV1 NLRepRluc-P373S by multicycle assay; format: functional
[5] = test system: Human immunodeficiency virus 1; experiment: In vitro antiviral activity against fully replicating HIV1 harboring Gag V370A/deltaV371 mutant assessed as maximum percent inhibition by multicycle assay relative to control; format: functional
[6] = test system: Human immunodeficiency virus 1; experiment: In vitro antiviral activity against fully replicating wild type pseudotype HIV1 NLRepRluc-P373S by single cycle assay; format: functional, organism-based
[7] = test system: Human immunodeficiency virus 1; experiment: In vitro antiviral activity against fully replicating pseudotype HIV1 harboring Gag V370A mutant by single cycle assay; format: functional, organism-based
[8] = test system: Human immunodeficiency virus 1; experiment: Ratio of EC50 for antiviral activity against fully replicating pseudotype HIV1 harboring Gag V3621/V370A mutant by single cycle assay to EC50 for antiviral activity against fully replicating wild type pseudotype HIV1 NLRepRluc-P373S by single cycle assay; format: functional
[9] = test system: Human immunodeficiency virus 1; experiment: In vitro antiviral activity against fully replicating pseudotype HIV1 harboring Gag V370A mutant assessed as maximum percent inhibition by single cycle assay relative to control; format: functional
[10] = test system: Human immunodeficiency virus 1; experiment: In vitro antiviral activity against fully replicating pseudotype HIV1 harboring Gag deltaV370 mutant assessed as maximum percent inhibition by single cycle assay relative to control; format: functional
[11] = test system: Human immunodeficiency virus 1; experiment: In vitro antiviral activity against HIV1 subtype A clinical isolate I-2496; format: functional, organism-based; conditions: Human immunodeficiency virus 1, I-2496
[12] = AUC (infinity) in mouse at 1 mg/kg, iv; format: ADME, organism-based; conditions: in vivo
[13] = Oral bioavailability in mouse at 5 mg/kg; format: ADME, organism-based; conditions: in vivo
[14] = AUC (infinity) in rat at 5 mg/kg, po; format: ADME, organism-based; conditions: in vivo
[15] = Elimination half life in dog at 2 mg/kg, iv; format: ADME, organism-based, Canis lupus familiaris; conditions: in vivo, read-out: beta t1/2 (converted)
[16] = Volume of distribution at steady state in dog at 2 mg/kg, iv; format: ADME, organism-based, Canis lupus familiaris; conditions: in vivo, read-out: Vdss
[17] = AUC (infinity) in Cynomolgus monkey at 2 mg/kg, iv; format: ADME, organism-based, Macaca fascicularis; conditions: in vivo
[18] = Metabolic stability in human liver microsomes assessed as half life; format: ADME, Microsome
Cytochrome P450 3A4 = Cytochrome P450 3A4 (Homo sapiens, UniProt P08684); experiment: Inhibition of CYP3A4 (unknown origin); format: ADME
Cytochrome P450 3A4, sequence (P08684 whole entry): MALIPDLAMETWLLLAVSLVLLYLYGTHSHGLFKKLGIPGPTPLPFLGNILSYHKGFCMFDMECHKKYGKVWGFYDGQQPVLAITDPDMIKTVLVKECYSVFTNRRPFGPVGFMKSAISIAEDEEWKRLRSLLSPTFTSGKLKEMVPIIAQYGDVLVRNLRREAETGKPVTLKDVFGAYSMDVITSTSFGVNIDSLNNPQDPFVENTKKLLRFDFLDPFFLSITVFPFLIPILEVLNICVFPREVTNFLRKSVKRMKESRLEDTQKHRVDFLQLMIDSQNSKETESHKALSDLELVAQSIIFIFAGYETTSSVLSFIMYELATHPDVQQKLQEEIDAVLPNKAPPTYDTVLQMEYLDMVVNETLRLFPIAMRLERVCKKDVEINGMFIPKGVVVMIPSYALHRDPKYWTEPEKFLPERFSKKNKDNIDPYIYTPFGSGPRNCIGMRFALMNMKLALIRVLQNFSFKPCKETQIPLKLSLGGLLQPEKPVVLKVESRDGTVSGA

[19] = Genotoxicity in Salmonella typhimurium by Ames test; format: toxicity; conditions: salmonella enterica subsp. enterica serovar typhimurium

`C=C(C)[C@@H]1CC[C@]2(NCCN3CCS(=O)(=O)CC3)CC[C@]3(C)[C@H](CC[C@@H]4[C@@]5(C)CC=C(C6=CC[C@](COc7ncccc7C#N)(C(=O)O)CC6)C(C)(C)[C@@H]5CC[C@]43C)[C@@H]12` showed an EC50 [1] of 26 nM, an EC50 [2] of 8 nM and an EC50 [3] of 4 nM. For the same compound, the “Ratio EC50” value [4] was 2, the Imax [5] was 92.2% and the EC50 [6] was 5 nM. The EC50 [7] was 6 nM, the “Ratio EC50” value [8] was 2.3 and the Imax [9] was 99%. For the same compound, the Imax [10] was 100%, the EC50 [11] was 3 nM and the AUC(0-inf) [12] was 32.2 µM·h. For the same compound, the bioavailability [13] was 46%, the AUC(0-inf) [14] was 36.3 µM·h and the half-life [15] was 26.9 h. For the same compound, the Vd [16] was 0.43 L/kg, the AUC(0-inf) [17] was 65.5 µM·h and the half-life [18] was over 2 h. For the same compound, the IC50 (Cytochrome P450 3A4) was over 4400 nM and the Activity [19] was “Non-Toxic”.
